The values below come from paper PMC3652196, “Pharmacometrics of 3-Methoxypterostilbene: A Component of Traditional Chinese Medicinal Plants” (Evidence-based Complementary and Alternative Medicine : eCAM, 2013).

As usually defined, the bioavailability is the share of a dose that reaches the circulation, judged against a reference dose that is usually intravenous.

Bounds are passed on as bounds.

Data set [1] deals with α-glucosidase from Saccharomyces cerevisiae. As to the kind of experiment: α-Glucosidase inhibition colorimetric assay (PNPG). In kind it is biochemical. Conditions: 0 to 200 μg/mL, n = 6.
For data set [2] the following is noted: humans; cited from earlier work.

For the compound `Oc1ccc(/C=C/c2cc(O)cc(O)c2)cc1` [resveratrol], in data set [1], the “α-Glucosidase inhibition (in words)” value was “clear positive concentration-dependent inhibition relationship”. Moreover, the bioavailability in data set [2] is reported as less than 1%.
